Results taken from US5516651A, “Nucleic acids encoding calcitonin receptor and uses thereof” (The General Hospital Corporation, priority 1991, dated 1996).
Numbering of substitutions follows the chain as printed.

Tests used:
[1] = target: T1, porcine calcitonin receptor (CTR) (Sus scrofa, UniProt P25117); type: cell-based
T1 construct: expressed in transfected cells; host or cells: COS cells
T1 sequence (P25117 30-482 isoform P25117-2 K186L): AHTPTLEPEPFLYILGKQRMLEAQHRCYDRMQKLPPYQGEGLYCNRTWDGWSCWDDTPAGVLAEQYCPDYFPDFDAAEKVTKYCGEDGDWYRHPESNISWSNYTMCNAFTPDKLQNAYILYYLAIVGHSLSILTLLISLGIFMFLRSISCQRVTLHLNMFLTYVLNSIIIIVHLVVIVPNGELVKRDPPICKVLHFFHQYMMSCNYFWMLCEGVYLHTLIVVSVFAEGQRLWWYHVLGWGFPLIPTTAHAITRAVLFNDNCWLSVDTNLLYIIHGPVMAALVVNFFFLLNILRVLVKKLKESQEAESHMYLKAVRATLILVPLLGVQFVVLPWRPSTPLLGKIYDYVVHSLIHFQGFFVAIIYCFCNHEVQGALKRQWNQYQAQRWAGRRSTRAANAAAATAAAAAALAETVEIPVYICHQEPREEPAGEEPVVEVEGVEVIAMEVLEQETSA
Procedure: (§1) The cloned porcine receptor is functionally coupled to increased intracellular cAMP (FIGS. 2A and 2B). A 4-fold increase in the concentration of intracellular cAMP was observed after incubation of porcine CTR-transfected COS cells with calcitonin, but there was no increase when cells were transfected with β-galactosidase and subsequently stimulated with calcitonin.
BIN-67 cells or COS-M6 cells were grown in 10 cm petri dishes. Forty eight hours before the cAMP assay, the COS-M6 cells were transfected with either human CTR cDNA, or with β-galactosidase cDNA which served as a control. After 24 hours, the transfected COS-M6 cells and the BIN-67 cells were trypsinized and transferred to plastic trays containing 24 16 mm wells (Falcon) at an initial plating density of 5×10^4 cells/well. To test for hormone-induced cAMP responses, the medium was removed from each well and the cells were washed with PBS supplemented with calcium and magnesium. Triplicate groups of cells were incubated for 20 minutes at 37° C. at room temperature with either test buffer [PBS supplemented with calcium, magnesium, 0.25% bovine serum albumin, 11 mM glucose and 1 mM 3-isobutyl-methyl-xanthine (IBMX)], or with 4 mM isoproterenol or peptide hormone at the appropriate concentrations. Reactions were stopped by placing the culture plates in a water bath at 100° C. until all liquid had evaporated. […]

human CTR [2] = target: T2, human CTR (Homo sapiens, UniProt P30988, L447P/S166F); assay: cAMP assay in COS-M6 cells transfected with human CTR cDNA; type: cell-based
T2 construct: expressed in transfected cells; host or cells: COS-M6 (COS-7 subclone)
T2 sequence (P30988 25-490 isoform P30988-1 S166F/L463P): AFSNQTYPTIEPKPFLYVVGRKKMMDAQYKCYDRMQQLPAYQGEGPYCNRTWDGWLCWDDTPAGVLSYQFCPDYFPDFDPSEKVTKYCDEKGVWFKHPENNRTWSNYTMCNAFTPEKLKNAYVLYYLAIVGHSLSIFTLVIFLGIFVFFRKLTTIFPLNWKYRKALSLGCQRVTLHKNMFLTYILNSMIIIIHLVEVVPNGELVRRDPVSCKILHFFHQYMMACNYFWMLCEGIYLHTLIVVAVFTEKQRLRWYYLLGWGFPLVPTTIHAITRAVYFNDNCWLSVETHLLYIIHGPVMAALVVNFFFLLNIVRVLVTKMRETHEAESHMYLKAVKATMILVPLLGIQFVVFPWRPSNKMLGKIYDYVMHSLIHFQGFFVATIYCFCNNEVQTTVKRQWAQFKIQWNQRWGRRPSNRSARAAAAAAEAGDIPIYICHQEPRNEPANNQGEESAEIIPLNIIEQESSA
Procedure: Plasmid DNA was used to transfect COS-M6 cells growing in 10 cm petri dishes (Falcon, Lincoln Park, N.J.) using the DEAE-dextran/chloroquine procedure (Seed and Aruffo, 1987, Proc. Natl. Acad. Sci. USA 84:3365). Forty-eight hours after transfection, cells were incubated in the presence of either iodinated calcitonin for ligand binding studies, or unlabeled calcitonin for the assay of intracellular cAMP.
(§2) BIN-67 cells or COS-M6 cells were grown in 10 cm petri dishes. Forty eight hours before the cAMP assay, the COS-M6 cells were transfected with either human CTR cDNA, or with β-galactosidase cDNA which served as a control. After 24 hours, the transfected COS-M6 cells and the BIN-67 cells were trypsinized and transferred to plastic trays containing 24 16 mm wells (Falcon) at an initial plating density of 5×10^4 cells/well. To test for hormone-induced cAMP responses, the medium was removed from each well and the cells were washed with PBS supplemented with calcium and magnesium. Triplicate groups of cells were incubated for 20 minutes at 37° C. at room temperature with either test buffer [PBS supplemented with calcium, magnesium, 0.25% bovine serum albumin, 11 mM glucose and 1 mM 3-isobutyl-methyl-xanthine (IBMX)], or with 4 mM isoproterenol or peptide hormone at the appropriate concentrations. Reactions were stopped by placing the culture plates in a water bath at 100° C. until all liquid had evaporated. The plates were stored at -20° C. until assayed. The cAMP assay was performed by adding 1.0 ml of 50 mM sodium acetate buffer, pH 6.2, to each well. Dried cells were scraped into this buffer, transferred to glass tubes and centrifuged at 500×g for 10 minutes. Aliquots of supernatant were assayed for cAMP using a radioimmunoassay kit (New England Nuclear/Dupont cAMP [^125 I] Radioimmunoassay Kit, Dupont).

[3] = system: β-galactosidase transfected COS cells; assay: cAMP response in mock (β-galactosidase) transfected COS cells; type: cell-based; details: for activation of adenylate cyclase / increase of cAMP levels: β-galactosidase (mock) transfected COS cells; for increase in cAMP after stimulation with calcitonin: COS cells transfected with β-galactosidase
Procedure: as §1, §2

human CTR [4] = target: T2, human CTR; assay: Radioligand binding to COS-M6 cells transfected with human CTR cDNA; details: for competition for binding with radioiodinated salmon or human calcitonin: COS cells transfected with human CTR cDNA
Procedure: (§3) Human small ovarian cell carcinoma cells (BIN-67) were grown in 10 cm petri dishes in Dulbecco's modified Eagle's medium (DMEM) supplemented with 20% (vol/vol) heat inactivated fetal calf serum (GIBCO) and enriched with 25% Ham's F12 medium (GIBCO). Cells at near confluency, were passed approximately twice a week by trypsinization using 0.25% trypsin (GIBCO). Radioligand binding assays were performed in triplicate as follows. The cells were washed, trypsinized and counted in an automated cell counter (Coulter, Hialeah, Fla.). […] The mixture was incubated for 14-16 hours at 4° C. The cells were washed by layering 100 μl of cell suspension over 400 μl of 10% sucrose (wt/vol) in a mini-microfuge tube (Bio-Rad) and centrifuging at maximum speed in a microfuge for three minutes to pellet the cells. The supernatant was removed by aspiration, and the portion of the tube containing the cell pellet was cut off and assayed for radioactive content in a gamma counter (TM Analytic, Elk Grove Village, Ill.). Ligand binding to COS-M6 cells transfected with a human CTR-containing plasmid was performed using the same technique.

[5] = target: T3, calcitonin binding sites of BIN-67 cells (Homo sapiens, UniProt P30988); assay: Radioligand binding of salmon and human calcitonin to BIN-67 cells; details: for displacement of radiolabeled salmon or human calcitonin binding: concentrations as high as 10^-5 M
T3 construct: native BIN-67 cells (0.42 nM); endogenous in cells; host or cells: BIN-67 (human ovarian small cell carcinoma)
T3 sequence (P30988 25-490 isoform P30988-1 limits assumed): T2 sequence (P30988 25-490 isoform P30988-1 S166F/L463P) with F142S, P439L
Procedure: as §3

[6] = target: T1, porcine calcitonin receptor (CTR); assay: Radioiodinated salmon calcitonin binding to COS cells transfected with porcine CTR cDNA
Excerpt: (§4) Radioiodinated salmon calcitonin binds to LLC-PK1 cells and to COS cells transfected with the cloned porcine calcitonin receptor (CTR) cDNA (FIGS. 1A and 1B). […] Bovine parathyroid hormone (1-34) [PTH(1-34)]

BIN-67 cells = assay: cAMP assay in BIN-67 cells; type: cell-based, human; details: read-out: 50% maximal effective concentration (EC50) for cAMP increase
Procedure: as §2, with “Aliquots of supernatant were assayed for cAMP using a radioimmunoassay kit (New England Nuclear/Dupont cAMP [^125 I] Radioimmunoassay Kit, Dupont).” left out

[7] = target: T4, calcitonin receptors of BIN-67 cells (Homo sapiens, UniProt P30988); assay: Emulsion autoradiography of BIN-67 cells with [125I]-salmon calcitonin; type: binding
T4 construct: native BIN-67 cells (0.42 nM); endogenous in cells; host or cells: BIN-67 (human ovarian small cell carcinoma)
T4 sequence (P30988 25-490 isoform P30988-1 limits assumed): T2 sequence (P30988 25-490 isoform P30988-1 S166F/L463P) with F142S, P439L
Procedure: Cells were grown on glass chamber slides (Nunc, Kamstrup, DK). The medium was removed by aspiration and the cells were incubated in binding buffer (PBS supplemented with 11 mM glucose, 0.5% bovine serum albumin) with [^125 I]-salmon calcitonin (200 pM) with or without 10^-6 M unlabeled salmon calcitonin (Sigma). After 5 washes in ice cold PBS supplemented with calcium and magnesium, the cells were fixed in PBS plus 2% formaldehyde, coated with Kodak NTB2 emulsion and exposed for 1-3 weeks at 4° C., after which they were developed and counterstained with Giemsa.

[8] = target: T5, calcitonin receptors of LLC-PK1 cells (Sus scrofa, UniProt P25117); assay: Radioiodinated calcitonin binding to LLC-PK1 cells (Scatchard); design: species or system porcine; details: FIG. 1A, read-out: apparent dissociation constant (Kd)
T5 construct: endogenous in cells; host or cells: LLC-PK1
T5 sequence (P25117 30-482 isoform P25117-2 limits assumed): T1 sequence (P25117 30-482 isoform P25117-2 K186L) with L157K
Excerpt: The porcine calcitonin receptor was cloned by expression in COS cells, using a strategy generally described in Lin et al., 1991, Proc. Natl. Acad. Sci. USA 88:3185. […] Pools of mini-prep cDNA (Sambrook et al., 1989, Molecular Cloning: A Laboratory Manual, Cold Spring Harbor Laboratory, N.Y.) containing 10^4 recombinants were transfected into COS cells and screened for binding to radioiodinated salmon calcitonin by emulsion autoradiography (Gearing et al., 1989, EMBO 8:3667). After screening 30 pools representing 3×10^5 clones, two positive pools were identified from which two positive clones with cDNA inserts 2.2 and 3.9 kb in length were isolated. The 2.2 kb clone (3JS-14-FI) was a truncated version of the 3.9 kb clone (2B5-0-I) but encoded the same open reading frame.
as §4

Question: Which “activation of adenylate cyclase” value ([1]; porcine CTR-transfected cells) does the source give for `CC(C)NCC(O)c1ccc(O)c(O)c1` (stereo not drawn) [isoproterenol] here?
Answer: The value was “activated adenylate cyclase”.

Question: And the cAMP response (human CTR [2]; FIG. 7C)?
Answer: Its cAMP response is “increased cAMP levels”.

Question: And the “activation of adenylate cyclase / increase of cAMP levels” value [3]?
Answer: Its value is “increased cAMP levels”.

Question: And the “activation of adenylate cyclase / increase of cAMP levels” value ([3]; listed as Isoproterenol)?
Answer: Its value is “activated adenylate cyclase”.

Question: With Bovine parathyroid hormone (1-34) [PTH] as the compound, how does the “competition for binding with radioiodinated salmon or human calcitonin” value (human CTR [4]) read?
Answer: The value was “failure of other hormones, including PTH or secretin, to compete for binding”.

Question: And the “displacement of radiolabeled salmon or human calcitonin binding” value ([5]; BIN-67 cells)?
Answer: The value was “failed to displace”.

Question: And the “competition for binding of radioiodinated salmon calcitonin” value ([6]; porcine CTR transfectants)?
Answer: The value was “did not compete”.

Question: And the cAMP response (human CTR [2]; FIG. 7C)?
Answer: Its cAMP response is “failure of PTH to induce a response”.

Question: For human calcitonin, which maximal binding ([5]; human calcitonin binding to BIN-67 cells, FIG. 6C) is on record?
Answer: The maximal binding was 1.92×10^4 cpm per sample.

Question: And the EC50 (BIN-67 cells)?
Answer: Its EC50 is ~3 nM.

Question: With salmon calcitonin as the compound, how does the Kd (human CTR [4]; COS-M6 cells transfected with HCTR-BIN67, read-out: apparent Kd (Scatchard analysis)) read?
Answer: Its Kd is 0.44 nM.

Question: What about the Kd ([5]; BIN-67 cells, radiolabeled ligand, 4° C., read-out: Kd (Scatchard analysis)) of the same compound?
Answer: Its Kd is 0.42 nM.

Question: What about the IC50 ([5]; read-out: apparent 50% inhibitory concentration (IC50), BIN-67 cells, [125I]human calcitonin competed with unlabeled ligand) of the same compound?
Answer: Its IC50 is 0.6 to 0.7 nM.

Question: What about the “increase in concentration of intracellular cAMP” value ([1]; cos cells, 20 min) of the same compound?
Answer: The value was 4 fold.

Question: What about the Kd ([6]; COS cells transfected with porcine CTR cDNA, FIG. 1B, read-out: apparent Kd) of the same compound?
Answer: The Kd was ~6 nM.

Question: What about the “increase in cAMP levels” value (human CTR [2]; maximal stimulatory concentrations, 20 minutes, IBMX, FIG. 7C) of the same compound?
Answer: Its value is ~4 fold.

Question: What about the “competition of [125I]-salmon calcitonin label by excess unlabeled ligand” value [7] of the same compound?
Answer: The value was “competed out all of the label”.

Question: What about the “increase in cAMP after stimulation with calcitonin” value [3] of the same compound?
Answer: Its value is “failed to increase cAMP levels above control levels”.

Question: What about the “increase in cAMP after stimulation with calcitonin” value ([3]; listed as calcitonin) of the same compound?
Answer: Its value is “no increase”.

Question: What about the Kd [8] of the same compound?
Answer: The Kd was ~3 nM.

Question: And the EC50 (BIN-67 cells)?
Answer: Its EC50 is ~0.7 nM.

Question: For secretin, which “competition for binding with radioiodinated salmon or human calcitonin” value (human CTR [4]) is on record?
Answer: Its value is “failure of other hormones, including PTH or secretin, to compete for binding”.

Question: What about the “displacement of radiolabeled salmon or human calcitonin binding” value ([5]; BIN-67 cells) of the same compound?
Answer: The value was “failed to displace”.

Question: And the cAMP response (human CTR [2]; concentrations up to 10^-6 M)?
Answer: Its cAMP response is “failed to induce a response”.
